The values that follow come from PMC4082485, “The Rodin-Ohno hypothesis that two enzyme superfamilies descended from one ancestral gene: an unlikely scenario for the origins of translation that will not be dismissed” (Biology Direct, 2014).

Structures are written as SMILES.

The target of experiment [1] is T1, HisRS 46-residue peptide (46-mer, Class II ATP binding site) (Escherichia coli, UniProt P60906).
T1 construct: gene hisS
The experiment can be described thus: fluorescence titration of ATP with peptide (Mildvan assay). The note with it: pH 4.5; range printed jointly for the TrpRS and HisRS 46-mers, not assigned to either.

The target in experiment [2] is T2, TrpRS 46-residue peptide (46-mer, Class I ATP binding site) (Geobacillus stearothermophilus, UniProt P00953).
T2 construct: gene trpS
The description is as above.

Experiment [3] has as its target T3, HisRS Urzyme (HisRS 2) (Escherichia coli, UniProt P60906).
T3 construct: gene hisS; HisRS invariant core (Motifs 1 and 2, 122-residue base fragment); MBP fusion, TEV cleavage
The experiment can be described thus: Michaelis-Menten steady-state kinetics of amino acid activation. It is filed as biochemical. The note with it: ATP co-substrate; only kcat/KM free energies plotted.

T1 sequence (P60906 101-146): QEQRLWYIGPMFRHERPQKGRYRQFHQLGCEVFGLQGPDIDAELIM
T2 sequence (P00953 1-46 limits assumed): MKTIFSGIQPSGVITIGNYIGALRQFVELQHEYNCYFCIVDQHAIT
T3 sequence (P60906 25-146): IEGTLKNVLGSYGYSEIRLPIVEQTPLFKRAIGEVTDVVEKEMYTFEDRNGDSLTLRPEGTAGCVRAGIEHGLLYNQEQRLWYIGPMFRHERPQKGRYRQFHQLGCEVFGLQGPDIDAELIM

`Nc1ncnc2c1ncn2[C@@H]1O[C@H](COP(=O)(O)OP(=O)(O)OP(=O)(O)O)[C@@H](O)[C@H]1O` [ATP]: the Kd in experiment [1] and in experiment [2] was 10 to 65 µM in each case.

As for `N[C@@H](Cc1cnc[nH]1)C(=O)O` [histidine], the “Michaelis-Menten steady-state kinetics of amino acid activation” value in experiment [3] is “they both preferentially activate amino acids similar to the original substrate (i.e., Leu and His)”.

As a reminder, the Kd is the equilibrium constant for the complex coming apart.
